What was measured:
Type in all cases: binding
Parameters in all cases: KINOMEscan: ABL1(F317L)-phosphorylated / KINOMEscan: ABL1(H396P)-nonphosphorylated / KINOMEscan: ABL1(H396P)-phosphorylated / KINOMEscan: ABL1(M351T)-phosphorylated / KINOMEscan: ABL1(T315I)-phosphorylated / KINOMEscan: ABL1-nonphosphorylated / KINOMEscan: ABL1-phosphorylated / KINOMEscan: ACVR2A / KINOMEscan: ACVR2B / KINOMEscan: ADCK3 / KINOMEscan: ADCK4 / KINOMEscan: AKT1 / KINOMEscan: AKT3 / KINOMEscan: ALK / KINOMEscan: ARK5 / KINOMEscan: AURKA / KINOMEscan: AURKC / KINOMEscan: BIKE / KINOMEscan: BMPR1A / KINOMEscan: BMPR1B / KINOMEscan: BMX / KINOMEscan: BRK / KINOMEscan: BRSK1 / KINOMEscan: BRSK2 / KINOMEscan: CAMK1 / KINOMEscan: CAMK1D / KINOMEscan: CAMK1G / KINOMEscan: CAMK2A / KINOMEscan: CAMK2B / KINOMEscan: AAK1 / KINOMEscan: CAMK2D / KINOMEscan: CAMK2G / KINOMEscan: ABL1(F317I)-nonphosphorylated / KINOMEscan: ABL1(F317I)-phosphorylated / KINOMEscan: ABL1(F317L)-nonphosphorylated: unit: % Ctrl
Settings in all cases: Compound Concentration 10 µM
panel of 442 kinases [1] = target: T1, panel of 442 kinases (Homo sapiens, UniProt P48736)
T1 construct: purchased KINOMEscan
T1 sequence (P48736 whole entry): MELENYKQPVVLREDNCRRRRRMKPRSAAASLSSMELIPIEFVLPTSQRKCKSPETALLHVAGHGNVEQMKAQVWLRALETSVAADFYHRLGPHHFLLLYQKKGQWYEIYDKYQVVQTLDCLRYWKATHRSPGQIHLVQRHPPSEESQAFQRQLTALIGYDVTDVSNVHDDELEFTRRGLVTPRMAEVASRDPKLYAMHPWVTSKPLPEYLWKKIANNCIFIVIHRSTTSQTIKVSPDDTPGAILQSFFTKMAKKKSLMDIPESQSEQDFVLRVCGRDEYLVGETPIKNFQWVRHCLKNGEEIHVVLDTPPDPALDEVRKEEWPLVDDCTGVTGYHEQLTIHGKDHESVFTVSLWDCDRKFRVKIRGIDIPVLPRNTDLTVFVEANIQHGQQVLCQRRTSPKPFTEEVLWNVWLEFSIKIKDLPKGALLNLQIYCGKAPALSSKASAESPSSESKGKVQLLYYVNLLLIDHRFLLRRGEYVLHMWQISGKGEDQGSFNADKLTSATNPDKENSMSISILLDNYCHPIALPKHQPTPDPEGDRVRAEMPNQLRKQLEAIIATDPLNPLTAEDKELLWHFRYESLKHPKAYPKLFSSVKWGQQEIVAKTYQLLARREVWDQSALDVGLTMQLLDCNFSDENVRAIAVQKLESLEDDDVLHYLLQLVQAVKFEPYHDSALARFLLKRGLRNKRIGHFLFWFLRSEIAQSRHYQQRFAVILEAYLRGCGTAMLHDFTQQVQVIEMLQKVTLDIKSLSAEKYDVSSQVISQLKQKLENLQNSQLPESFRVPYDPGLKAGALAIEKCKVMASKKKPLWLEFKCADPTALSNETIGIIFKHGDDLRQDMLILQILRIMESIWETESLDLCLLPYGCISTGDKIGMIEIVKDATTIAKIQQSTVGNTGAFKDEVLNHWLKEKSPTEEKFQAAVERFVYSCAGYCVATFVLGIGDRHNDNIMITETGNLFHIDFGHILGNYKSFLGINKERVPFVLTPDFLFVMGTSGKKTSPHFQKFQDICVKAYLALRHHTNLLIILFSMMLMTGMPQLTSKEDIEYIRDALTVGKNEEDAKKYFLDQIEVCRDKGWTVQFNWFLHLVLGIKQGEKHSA
Source text: (§1) We assessed the selectivity of members of this scaffold using the KINOMEscan methodology across a near comprehensive panel of 442 kinases [[18,27]].

panel of 442 kinases [2] = target: T2, panel of 442 kinases (Homo sapiens, UniProt Q96D53)
T2 construct: purchased KINOMEscan
T2 sequence (Q96D53 1-544): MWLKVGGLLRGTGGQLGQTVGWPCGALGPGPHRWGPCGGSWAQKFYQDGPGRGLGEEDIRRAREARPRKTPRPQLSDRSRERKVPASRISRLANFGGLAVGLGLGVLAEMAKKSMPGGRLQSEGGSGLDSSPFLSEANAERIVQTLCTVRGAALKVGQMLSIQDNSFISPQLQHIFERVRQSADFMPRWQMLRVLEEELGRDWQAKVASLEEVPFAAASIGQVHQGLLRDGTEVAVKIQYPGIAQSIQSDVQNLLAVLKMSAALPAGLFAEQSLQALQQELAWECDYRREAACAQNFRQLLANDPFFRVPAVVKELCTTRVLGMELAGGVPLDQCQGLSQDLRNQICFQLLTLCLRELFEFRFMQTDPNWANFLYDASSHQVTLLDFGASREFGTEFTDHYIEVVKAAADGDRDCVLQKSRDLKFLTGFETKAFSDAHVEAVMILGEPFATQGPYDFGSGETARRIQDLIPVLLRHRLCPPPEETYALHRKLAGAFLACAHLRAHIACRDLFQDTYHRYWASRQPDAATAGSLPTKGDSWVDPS
Source text: as §1

panel of 442 kinases [3] = target: T3, panel of 442 kinases (Homo sapiens, UniProt Q8N752)
T3 construct: purchased KINOMEscan
T3 sequence (Q8N752 1-337): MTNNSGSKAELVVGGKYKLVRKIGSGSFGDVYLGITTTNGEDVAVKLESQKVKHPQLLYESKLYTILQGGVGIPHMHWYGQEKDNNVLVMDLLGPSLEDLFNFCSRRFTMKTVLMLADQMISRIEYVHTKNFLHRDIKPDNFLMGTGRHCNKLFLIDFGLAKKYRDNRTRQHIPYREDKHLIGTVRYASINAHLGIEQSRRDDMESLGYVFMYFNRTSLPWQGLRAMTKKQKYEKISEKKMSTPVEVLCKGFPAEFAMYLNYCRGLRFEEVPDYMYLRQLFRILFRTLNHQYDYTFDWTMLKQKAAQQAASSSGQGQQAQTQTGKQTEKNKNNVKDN
Source text: as §1

Row | SMILES | KINOMEscan: PIK3CG (panel of 442 kinases [1]) | KINOMEscan: ADCK4 (panel of 442 kinases [2]) | KINOMEscan: CSNK1A1L (panel of 442 kinases [3])
1 | COc1cc(C(=O)N2CCC(N3CCN(C)CC3)CC2)ccc1Nc1ncc2c(n1)N1CCc3cccc(c31)C(=O)N2C [Compound 24] | 30 | 81 | –
2 | CCOc1cc(C(=O)N2CCC(N3CCN(C)CC3)CC2)ccc1Nc1ncc2c(n1)N(C1CCCC1)c1ccccc1C(=O)N2C [Compound 26] | 82 | 100 | 99
3 | COc1cc(C(=O)N2CCC(N3CCN(C)CC3)CC2)ccc1Nc1ncc2c(n1)N(C1CCCC1)c1ccccc1C(=O)N2C [Compound 25, 11-cyclopentyl-2-((2-methoxy-4-(4-(4-methylpiperazin-1-yl)piperidine-1-carbonyl)phenyl)amino)-5-methyl-5H-benzo[e]pyrimido[5,4-b][1,4]diazepin-6(11H)-one] | 80 | 92 | 100
4 | COc1cc(C(=O)N2CCC(N3CCN(C)CC3)CC2)ccc1Nc1ncc2c(n1)N(C)c1ccccc1C(=O)N2C [15 (LRRK2-IN-1)] | 15 | 94 | 100

From PMC3914206
